Experimental data reported in patent publication US12648926B2, “Dietary supplement comprising aldehyde functional monoterpenoids” (priority 2020, dated 2026).
“And” between values parts separate entries of the source, which are not always exact repeats. Equal entries are not always repeated. Where two headings read alike, the source gives them in different places.

Columns and labels:
[1] = system: EpiAirway™ (AIR-100) tissues
[2] = system: EpiAirway™ (AIR-100) tissues; details: H&E staining after 24-hour recovery
[3] = system: EpiAirway™ (AIR-100) tissues; details: for TEER Significant?: alpha 0.05
[4] = post 24 hr recovery: Untreated Control vs treatment
[5] = pre exposure vs post 24 hr recovery, same treatment

## Triton X-100 [0.5% Triton]
[1]; LDH assay, 24-hour time point
  Effect on tissue viability: complete loss of viability
[1]; Untreated Control vs treatment
  LDH viability Mean Diff., Tukey's multiple comparisons test: 100
[1]; Untreated Control vs treatment, alpha 0.05
  LDH viability Significant?: Yes
[1]; group mean n=3 tissues, 24-hour time point
  LDH Group Mean OD: 1.125
[1]; group mean n=3 tissues, LDH assay, 24-hour time point
  % Viability Mean: 0.0%
[1]; mean of duplicates per tissue, 24-hour time point
  LDH Mean OD: 1.181 and 1.062 and 1.132
[1]; percent viability, 24-hour time point
  LDH statistics test details: group mean: −0.01667
[2]
  Tissue morphology: significant tissue disruption
[3]; 24-hour recovery
  Effect on barrier function / TEER: dropped completely
[3]; group mean n=3 tissues, after 24-hour recovery
  24 hr TEER Mean: 8.6 Ohms*cm2
[3]; group mean n=3 tissues, before exposure
  Pre-Exposure TEER Mean: 749.8 Ohms*cm2
[3]; per tissue, after 24-hour recovery
  24 hr TEER Ohms*cm2: 9.0 Ohms*cm2 and 8.4 Ohms*cm2
[3]; per tissue, before exposure
  Pre-Exposure TEER Ohms*cm2: 672.0 Ohms*cm2 and 832.8 Ohms*cm2 and 744.6 Ohms*cm2
[3]; [4]
  TEER Mean Diff., Tukey's multiple comparisons test: 628.6
  TEER Significant?: Yes
[3]; [5]
  TEER Mean Diff., Tukey's multiple comparisons test: 741.2
  TEER Significant?: Yes
[3]; pre exposure, N=3
  TEER statistics test details: group mean, pre exposure: 749.8
[3]; raw reading per tissue after 24-hour recovery, background 5 not subtracted
  24 hr TEER: 20 and 19
[3]; raw reading per tissue before exposure, background 5 not subtracted
  Pre-Exposure TEER: 1125 and 1393 and 1246
